Measured values taken from patent US7094895B2, “Tyrosyl derivatives and their use as P2X7 receptor modulators” (King Pharmaceuticals Research & Development, Inc., priority 2001, dated 2006).

Tests used:
P2X7 receptor [1] = molecular target: T1, P2X7 receptor (Homo sapiens, UniProt Q99572); assay: Inhibition of ATP-induced calcium influx in human monocytes (fura-2/AM); format: cell-based; design: endogenous in cells; host or cells: human monocytes; settings: inhibiting calcium influx in human monocytes in the presence of 1 mM ATP; read-out: P2X7 Antagonist Activity IC50
T1 sequence (Q99572 1-595): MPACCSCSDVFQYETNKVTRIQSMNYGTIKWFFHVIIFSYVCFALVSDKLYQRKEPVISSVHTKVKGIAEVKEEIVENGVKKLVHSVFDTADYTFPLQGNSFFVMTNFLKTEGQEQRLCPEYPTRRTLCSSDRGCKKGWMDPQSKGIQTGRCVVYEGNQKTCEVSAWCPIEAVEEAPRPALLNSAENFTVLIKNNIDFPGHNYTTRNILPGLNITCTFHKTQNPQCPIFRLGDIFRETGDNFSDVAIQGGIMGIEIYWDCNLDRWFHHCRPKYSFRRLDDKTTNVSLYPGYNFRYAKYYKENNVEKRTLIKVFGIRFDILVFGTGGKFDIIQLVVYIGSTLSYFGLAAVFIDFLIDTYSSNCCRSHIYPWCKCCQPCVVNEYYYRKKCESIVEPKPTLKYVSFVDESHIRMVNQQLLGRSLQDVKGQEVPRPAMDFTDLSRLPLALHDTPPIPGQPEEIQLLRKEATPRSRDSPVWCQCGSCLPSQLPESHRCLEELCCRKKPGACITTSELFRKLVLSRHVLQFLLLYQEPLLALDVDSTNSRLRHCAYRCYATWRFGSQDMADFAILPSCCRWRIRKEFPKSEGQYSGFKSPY
Description: Table 1 illustrates the IC50 values for compounds toward inhibiting calcium influx in human monocytes in the presence of 1 mM ATP.
Ca^2+ measurements. Changes in Ca^2+ were measured with the fluorescent indicator fura-2/AM (Molecular Probes, Inc., Eugene, Oreg.) as described previously.^32 Briefly, cells were loaded with […] of fura-2/AM and incubated in a thermostat-controlled (37° C.) and magnetically stirred fluorometer cuvette (model LS50, Perkin-Elmer Ltd., Beaconsfield, UK). Intracellular Ca^2+ concentration was determined with the 340/380 excitation ratio at an emission wavelength of 500 nm. All experiments were repeated three times.

P2X7 receptor [2] = molecular target: T1, P2X7 receptor; settings: at the concentration of 500 nM; cited from earlier work
[3] = tested on: Adriamycin-resistant cells (HL-60); settings: KN62 2 μM (non-cytotoxic), Adriamycin-resistant HL-60 cells; cited from earlier work

Work on `CN([C@@H](Cc1ccc(OS(=O)(=O)c2cccc3cnccc23)cc1)C(=O)N1CCN(c2ccc(Cl)cc2)CC1)S(=O)(=O)c1cccc2cnccc12` [1-[(S)-N,O-bis-(isoquinolinesulfonyl)-N-methyl-tyrosyl]-4-(4-chlorophenyl)-piperazine]] yielded an IC50 (P2X7 receptor [1]) of 105 nM.
With `CN([C@@H](Cc1ccc(OS(=O)(=O)c2cccc3cnccc23)cc1)C(=O)N1CCN(C(=O)c2ccc(F)cc2)CC1)S(=O)(=O)c1cccc2cnccc12` [1-[(S)-N,O-bis-(isoquinolinesulfonyl)-N-methyl-tyrosyl]-4-(4-fluorobenzoyl)-piperazine]] the IC50 (P2X7 receptor [1]) was 380 nM.
“1-[(S)-N,O-bis-(isoquinolinesulfonyl)-N-methyl-tyrosyl]-4-(pyrimidin-2-yl)-piperazine” gave an IC50 (P2X7 receptor [1]) of 79.8 nM.
In the case of `CC(=O)c1ccc(N2CCN(C(=O)[C@H](Cc3ccc(OS(=O)(=O)c4cccc5cnccc45)cc3)N(C)S(=O)(=O)c3cccc4cnccc34)CC2)cc1` [1-[(S)-N,O-bis-(isoquinolinesulfonyl)-N-methyl-tyrosyl]-4-(4-acetylphenyl)-piperazine]], the IC50 (P2X7 receptor [1]) is reported as 70.8 nM.
In the case of `CN([C@@H](Cc1ccc(OS(=O)(=O)c2cccc3cnccc23)cc1)C(=O)N1CCN(Cc2ccc(F)cc2)CC1)S(=O)(=O)c1cccc2cnccc12` [1-[(S)-N,O-bis-(isoquinolinesulfonyl)-N-methyl-tyrosyl]-4-(4-fluorobenzyl)-piperazine]], the IC50 (P2X7 receptor [1]) is reported as 5.8 nM.
`CN([C@@H](Cc1ccc(OS(=O)(=O)c2cccc3cnccc23)cc1)C(=O)N1CCN(c2ccc(C#N)cc2)CC1)S(=O)(=O)c1cccc2cnccc12` [1-[(S)-N,O-bis-(isoquinolinesulfonyl)-N-methyl-tyrosyl]-4-(4-cyanophenyl)-piperazine]] gave an IC50 (P2X7 receptor [1]) of 97.7 nM.
In the case of `CN([C@@H](Cc1ccc(OS(=O)(=O)c2cccc3cnccc23)cc1)C(=O)N1CCN(c2ccccc2)CC1)S(=O)(=O)c1cccc2cnccc12` [KN62, 1-N,0-(bis(1,5-isoquinolinesulfonyl)-N-methyl-L-tyrosyl)-4-phenylpiperazine], the “inhibition of the P2X7 receptor” value (P2X7 receptor [2]) is given as “complete inhibition”, the “enhancement of VP-16 induced topoisomerase II-mediated DNA cleavable complex formation” value [3] is given as 2- to 4 fold and the IC50 (P2X7 receptor [1]) is given as 51 nM.
With “1-[(S)-N,O-bis-(isoquinolinesulfonyl)tyrosyl]-4-(4-fluorophenyl)-piperazine” the IC50 (P2X7 receptor [1]) was 6.02 nM.
`Cc1ccccc1N1CCN(C(=O)[C@H](Cc2ccc(OS(=O)(=O)c3cccnc3)cc2)N(C)S(=O)(=O)c2cccnc2)CC1` [1-[(S)-N,O-bis-(3-pyridinesulfonyl)-N-methyl-tyrosyl]-4-(2-methylphenyl)-piperazine] gave an IC50 (P2X7 receptor [1]) of 9120 nM.
With “1-[(S)-N,O-bis-(isoquinolinesulfonyl)-N-methyl-tyrosyl]-4-(3-trifluoromethyl-phenyl)-piperazine” the IC50 (P2X7 receptor [1]) was 31.1 nM.
In the case of “1-[(S)-N,O-bis-(isoquinolinesulfonyl)-N-methyl-tyrosyl]-4-(2,3-dimethylphenyl)-piperazine”, the IC50 (P2X7 receptor [1]) is reported as 1120 nM.
In the case of “1-[(S)-N,O-bis-(isoquinolinesulfonyl)-N-methyl-tyrosyl]-4-(4-fluorophenyl)-piperazine”, the IC50 (P2X7 receptor [1]) is reported as 1.33 nM.
Compound `CN([C@@H](Cc1ccc(OS(=O)(=O)c2cccnc2)cc1)C(=O)N1CCN(c2ccccc2)CC1)S(=O)(=O)c1cccnc1` [1-[(S)-N,O-bis-(3-pyridinesulfonyl)-N-methyl-tyrosyl]-4-phenyl-piperazine] has an IC50 (P2X7 receptor [1]) of 955 nM.
In the case of “1-[(S)-N,O-bis-(isoquinolinesulfonyl)-N-methyl-tyrosyl]-4-(4-methoxy-phenyl)-piperazine”, the IC50 (P2X7 receptor [1]) is reported as 132 nM.
With “1-[(S)-N,O-bis-(isoquinolinesulfonyl)-N-methyl-tyrosyl]-4-(3,4-dichloro-phenyl)-piperazine” the IC50 (P2X7 receptor [1]) was 33.9 nM.
With “1-[(S)-N,O-bis-(isoquinolinesulfonyl)-N-methyl-tyrosyl]-4-phenethyl-piperazine” the IC50 (P2X7 receptor [1]) was 600 nM.
Compound `CN([C@@H](Cc1ccc(OS(=O)(=O)c2cccc3cnccc23)cc1)C(=O)N1CCN(Cc2ccc([N+](=O)[O-])cc2)CC1)S(=O)(=O)c1cccc2cnccc12` [1-[(S)-N,O-bis-(isoquinolinesulfonyl)-N-methyl-tyrosyl]-4-(4-nitrobenzyl)-piperazine]] has an IC50 (P2X7 receptor [1]) of 12.3 nM.
“1-[(S)-N,O-bis-(isoquinolinesulfonyl)-N-methyl-tyrosyl]-4-(4-nitrophenyl)-piperazine” gave an IC50 (P2X7 receptor [1]) of 5.76 nM.
“1-[(S)-N,O-bis-(isoquinolinesulfonyl)-N-methyl-tyrosyl]-4-(pyridin-2-yl)-piperazine” showed an IC50 (P2X7 receptor [1]) of 170 nM.
“1-[(S)-N,O-bis-(isoquinolinesulfonyl)-N-methyl-tyrosyl]-4-(3-chlorophenyl)-piperazine” gave an IC50 (P2X7 receptor [1]) of 14.1 nM.
“1-[(S)-N,O-bis-(isoquinolinesulfonyl)-N-methyl-tyrosyl]-4-benzylpiperidine” showed an IC50 (P2X7 receptor [1]) of 65.3 nM.
“1-[(S)-N,O-bis-(isoquinolinesulfonyl)-N-methyl-tyrosyl]-4-(2-methoxy-phenyl)-piperazine” gave an IC50 (P2X7 receptor [1]) of 84.1 nM.
Work on `CN([C@@H](Cc1ccc(OS(=O)(=O)c2cccc3cnccc23)cc1)C(=O)N1CCN(c2ccccc2F)CC1)S(=O)(=O)c1cccc2cnccc12` [1-[(S)-N,O-bis-(isoquinolinesulfonyl)-N-methyl-tyrosyl]-4-(2-fluorophenyl)-piperazine]] yielded an IC50 (P2X7 receptor [1]) of 18.5 nM.
“1-[(S)-N,O-bis-(isoquinolinesulfonyl)-N-methyl-tyrosyl]-4-(4-aminophenyl)-piperazine” showed an IC50 (P2X7 receptor [1]) of 101 nM.
In the case of “1-[(S)-N,O-bis-(isoquinolinesulfonyl)-N-methyl-tyrosyl]-4-benzylpiperazine”, the IC50 (P2X7 receptor [1]) is reported as 21 nM.
“1-[(S)-N,O-bis-(isoquinolinesulfonyl)-N-methyl-tyrosyl]-4-o-tolyl-piperazine” showed an IC50 (P2X7 receptor [1]) of 15.1 nM.
“1-[(S)-N,O-bis-(isoquinolinesulfonyl)-N-methyl-tyrosyl]-4-(p-tolyl)-piperazine” showed an IC50 (P2X7 receptor [1]) of 13.5 nM.
Work on “1-[(S)-N,O-bis-(isoquinolinesulfonyl)tyrosyl]-4-(o-tolyl)-piperazine” yielded an IC50 (P2X7 receptor [1]) of 28.8 nM.
For `CN([C@@H](Cc1ccc(OS(=O)(=O)c2cccc3cnccc23)cc1)C(=O)N1CCN(c2ccc(I)cc2)CC1)S(=O)(=O)c1cccc2cnccc12` [1-[(S)-N,O-bis-(isoquinolinesulfonyl)-N-methyl-tyrosyl]-4-(4-iodophenyl)-piperazine]], the IC50 (P2X7 receptor [1]) was 176 nM.
In the case of “1-[(S)-N,O-bis-(isoquinolinesulfonyl)-N-methyl-tyrosyl]-4-(2-chlorophenyl)-piperazine”, the IC50 (P2X7 receptor [1]) is reported as 15.8 nM.
